Source: patent publication US20100112030A1, “ROLE OF HEDGEHOG SIGNALING IN ATHEROSCLEROSIS AND CARDIOVASCULAR DISEASE” (The Regents of the University of California, priority 2007, published 2010)

Legend:
Format in all cases: cell-based
[1] = test system: Gli1 expression in mouse aortic smooth muscle cells (MASMC); assay: Hh target gene (Gli1) expression in MASMC; conditions: 48 hours of treatment
Description: (§1) Treatment of HASMC with Shh was examined to determine if Shh induces the expression of target genes, Ptch and Gli. […] This difference may be cell-type specific or may be due to heterogeneity in vascular smooth muscle cell populations and their differentiation state. Ptch and Gli1 mRNA expression was induced when using 3 μg/ml of rmShh after 48 hours of treatment (1.6 fold and 1.8 fold, respectively, compared to control vehicle-treated cells as assessed by Q-RT-PCR analysis). This is consistent with studies in which 3.5 μg/ml of Shh was used to activate rat vascular SMC. It is likely that local Shh concentrations may reach very high levels in the microenvironment of the vessel wall, since, as described herein, substantial immunostaining for Shh in atherosclerotic lesions was observed. Cells within the atherosclerotic lesion may also become more susceptible to Shh over time due to the inflammatory insults associated with that environment. […] Dose response and time course experiments can determine the extent and kinetics of Hh target gene expression in aortic SMC, as well as in other vascular cells, using techniques known to a person of ordinary skill.

[2] = test system: Ptch and Gli1 expression in human aortic smooth muscle cells (HASMC); assay: Hh target gene (Ptch, Gli1) mRNA expression in HASMC by Q-RT-PCR; conditions: 48 hours of treatment
Description: as §1

[3] = test system: pluripotent mesenchymal cells derived from the bone marrow; assay: Oxysterol-induced osteoblastic differentiation of pluripotent mesenchymal cells; conditions: hedgehog pathway inhibitor added to oxysterol-treated cells
From the text: These mesenchymal cells, which serve as osteoprogenitors during skeletal development and bone remodeling, are induced to undergo osteoblastic differentiation when treated with osteoinductive oxysterols.

Row | SMILES | increase in Gli1 expression [1] [fold] | increase in Gli1 expression [2] [fold] | oxysterol-induced osteoblastic differentiation of cells [3]
1 | CC(C)CCC[C@](C)(O)[C@H]1CC[C@H]2[C@@H]3CC=C4C[C@@H](O)CC[C@]4(C)[C@H]3CC[C@@]21C [20(S)-hydroxycholesterol] | 2 | 2 | 
2 | CC1=C2C[C@H]3[C@@H](CC=C4C[C@@H](O)CC[C@@]43C)[C@@H]2CC[C@]12O[C@@H]1C[C@H](C)CN[C@H]1[C@H]2C [cyclopamine] |  |  | completely inhibited
